Data published in patent US20230085307A1, “PYRIDAZINONE COMPOUND AND HERBICIDE” (NISSAN CHEMICAL CORPORATION, priority 2019, published 2023).

Experiments:
[1] = tested on: late watergrass; test: Test Example 1: herbicidal activity, application before weed generation under submerged conditions (Table 16, symbol A); format: in vivo, late watergrass (Echinochloa oryzicola); conditions: 320 g/ha applied herbicide
Method in brief: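 Submerged Wagner pots (alluvial soil, 4 cm water) sown with weed seeds and planted with 2.5-leaf rice seedlings; emulsifiable concentrate diluted in water applied to water surface on sowing day. Held in greenhouse at 25-30 °C; injury scored 0-5 by herbicidal rate after three weeks.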

[2] = tested on: late watergrass; test: Test Example 2: herbicidal activity, application during weed generation under submerged conditions (Table 17, symbol A); format: in vivo, late watergrass (Echinochloa oryzicola); conditions: AAH 320 g/ha; application during weed generation, submerged conditions
Method in brief: (§1)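 Wagner pot, alluvial soil, 4 cm flood; mixed sowing of all species; greenhouse 25° C.–30° C. Emulsifiable formulation, water-diluted to predetermined dose, applied to paddy water at 1–2 leaf stage. Effect rated at 3 wk using the earlier test's scoring criteria.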

[3] = tested on: Japanese bulrush; test: Test Example 2: herbicidal activity, application during weed generation under submerged conditions (Table 17, symbol B); format: in vivo, Japanese bulrush (Schoenoplectus juncoides); conditions: AAH 320 g/ha; application during weed generation, submerged conditions
Method in brief: as §1

[4] = tested on: barnyard grass; test: Test Example 3: herbicidal effect by foliage application, Wagner pot (Table 18, symbol H); format: in vivo, barnyard grass (Echinochloa crus-galli)
Method in brief: (§2)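 Plants were sown in alluvial soil held under 0.1–0.5 cm standing water and grown 14 days in a greenhouse at 25–30 °C. An emulsifiable formulation, water-diluted to the set dose, was then sprayed onto the foliage, and effects were scored three weeks later using previously defined criteria.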

[5] = tested on: Chinese sprangletop; test: Test Example 3: herbicidal effect by foliage application, Wagner pot (Table 18, symbol D); format: in vivo, chinese sprangletop (Leptochloa chinensis)
Method in brief: as §2

[6] = tested on: southern crabgrass; test: Test Example 4: herbicidal effect by soil treatment (Table 19, symbol F); format: in vivo, southern crabgrass (Digitaria ciliaris); conditions: amount of applied herbicide 320 g/ha
Method in brief: (§3)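 Three weeks of greenhouse growth at 25° C. to 30° C. followed a uniform surface spray of water-diluted emulsion at a predetermined herbicide amount. Seeds had been sown beforehand under about 1.5 cm of sterilized diluvial soil. Grading followed criteria set out in an earlier test.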

[7] = tested on: blackgrass; test: Test Example 4: herbicidal effect by soil treatment (Table 19, symbol J); format: in vivo, blackgrass (Alopecurus myosuroides); conditions: amount of applied herbicide 320 g/ha
Method in brief: as §3

[8] = tested on: Italian ryegrass; test: Test Example 4: herbicidal effect by soil treatment (Table 19, symbol K); format: in vivo, Italian ryegrass (Lolium multiflorum); conditions: amount of applied herbicide 320 g/ha
Method in brief: as §3

[9] = tested on: windgrass; test: Test Example 4: herbicidal effect by soil treatment (Table 19, symbol L); format: in vivo, windgrass (Apera spica-venti); conditions: amount of applied herbicide 320 g/ha
Method in brief: as §3

[10] = tested on: velvetleaf; test: Test Example 4: herbicidal effect by soil treatment (Table 19, symbol M); format: in vivo, velvetleaf (Abutilon theophrasti); conditions: amount of applied herbicide 320 g/ha
Method in brief: as §3

[11] = tested on: lambsquarters; test: Test Example 4: herbicidal effect by soil treatment (Table 19, symbol O); format: in vivo, lambsquarters (Chenopodium album); conditions: amount of applied herbicide 320 g/ha
Method in brief: as §3

[12] = tested on: persian speedwell; test: Test Example 4: herbicidal effect by soil treatment (Table 19, symbol R); format: in vivo, Persian speedwell (Veronica persica); conditions: amount of applied herbicide 320 g/ha
Method in brief: as §3

[13] = tested on: southern crabgrass; test: Test Example 5: herbicidal effect by foliage application, plastic box (Table 20, symbol F); format: in vivo, southern crabgrass (Digitaria ciliaris); conditions: foliage application, 320 g/ha
Method in brief: (§4)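 Plants sown in sterilized diluvial soil and grown 14 days in a greenhouse at 25° C to 30° C, then sprayed on the foliage with the compound's emulsion diluted in water to a predetermined herbicide amount. Injury to weeds and crops scored three weeks after application on a visual rating scale.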

[14] = tested on: Italian ryegrass; test: Test Example 5: herbicidal effect by foliage application, plastic box (Table 20, symbol K); format: in vivo, Italian ryegrass (Lolium multiflorum); conditions: foliage application, 320 g/ha
Method in brief: as §4

[15] = tested on: windgrass; test: Test Example 5: herbicidal effect by foliage application, plastic box (Table 20, symbol L); format: in vivo, windgrass (Apera spica-venti); conditions: foliage application, 320 g/ha
Method in brief: as §4

[16] = tested on: lambsquarters; test: Test Example 5: herbicidal effect by foliage application, plastic box (Table 20, symbol O); format: in vivo, lambsquarters (Chenopodium album); conditions: foliage application, 320 g/ha
Method in brief: as §4

[17] = tested on: persian speedwell; test: Test Example 5: herbicidal effect by foliage application, plastic box (Table 20, symbol R); format: in vivo, Persian speedwell (Veronica persica); conditions: foliage application, 320 g/ha
Method in brief: as §4

[18] = amount of applied herbicide 320 g/ha
[19] = evaluated three weeks after application

With CCCCCOc1cccc(-c2sc3ccc(F)cc3c2-c2c(O)c(C)nn(C)c2=O)c1 [2-225] as the molecule, how does the “Herbicidal effect on A: late watergrass (grade 0-5)” value [1] read?
Its value is 0 (Herbicidal rate of 5% or less (almost no effect)).

What about the “herbicidal effect rating, A: late watergrass” value [2] of the same molecule?
The value was 3 (Herbicidal rate of 40% or more and less than 70%).

What about the “herbicidal effect rating, B: Japanese bulrush” value [3] of the same molecule?
Its value is 3 (Herbicidal rate of 40% or more and less than 70%).

And the “herbicidal effect on H: barnyard grass” value [4, 18]?
The value was 4 (Herbicidal rate of 70% or more and less than 90%).

And the “herbicidal effect on D: Chinese sprangletop” value [5, 18]?
The value was 3 (Herbicidal rate of 40% or more and less than 70%).

And the “herbicidal effect on F: southern crabgrass” value [6]?
Its value is 0 (Herbicidal rate of 5% or less (almost no effect)).

And the “herbicidal effect on J: blackgrass” value [7]?
The value was 0 (Herbicidal rate of 5% or less (almost no effect)).

What about the “herbicidal effect on K: Italian ryegrass” value [8] of the same molecule?
The value was 0 (Herbicidal rate of 5% or less (almost no effect)).

And the “herbicidal effect on L: windgrass” value [9]?
The value was 0 (Herbicidal rate of 5% or less (almost no effect)).

And the “herbicidal effect on M: velvetleaf” value [10]?
Its value is 0 (Herbicidal rate of 5% or less (almost no effect)).

What about the “herbicidal effect on O: lambsquarters” value [11] of the same molecule?
The value was 3 (Herbicidal rate of 40% or more and less than 70%).

What about the “herbicidal effect on R: persian speedwell” value [12] of the same molecule?
The value was 0 (Herbicidal rate of 5% or less (almost no effect)).

And the “herbicidal effect on F: southern crabgrass (criteria 0-5)” value [13, 19]?
The value was 2 (Herbicidal rate of 20% or more and less than 40%).

And the “herbicidal effect on K: Italian ryegrass (criteria 0-5)” value [14, 19]?
The value was 0 (Herbicidal rate of 5% or less (almost no effect)).

What about the “herbicidal effect on L: windgrass (criteria 0-5)” value [15, 19] of the same molecule?
Its value is 4 (Herbicidal rate of 70% or more and less than 90%).

And the “herbicidal effect on O: lambsquarters (criteria 0-5)” value [16, 19]?
Its value is 4 (Herbicidal rate of 70% or more and less than 90%).

And the “herbicidal effect on R: persian speedwell (criteria 0-5)” value [17, 19]?
Its value is 5 (Herbicidal rate of 90% or more (almost completely withered)).

Which “Herbicidal effect on A: late watergrass (grade 0-5)” value [1] does the source give for Cc1nn(C)c(=O)c(-c2c(-c3ccc(OC(C)C)cc3)sc3ccccc23)c1O [1-020] here?
Its value is 4 (Herbicidal rate of 70% or more and less than 90%).

What about the “herbicidal effect rating, A: late watergrass” value [2] of the same molecule?
The value was 2 (Herbicidal rate of 20% or more and less than 40%).

And the “herbicidal effect rating, B: Japanese bulrush” value [3]?
Its value is 3 (Herbicidal rate of 40% or more and less than 70%).

And the “herbicidal effect on H (barnyard grass), rating 0-5” value ([4]; 320 g/ha)?
Its value is 5 (Herbicidal rate of 90% or more (almost completely withered)).

And the “herbicidal effect on D (Chinese sprangletop), rating 0-5” value ([5]; 320 g/ha)?
The value was 1 (Herbicidal rate of 5% or more and less than 20%).

And the “herbicidal effect rating, F: southern crabgrass” value [6]?
The value was 0 (Herbicidal rate of 5% or less (almost no effect)).

And the “herbicidal effect rating, J: blackgrass” value [7]?
Its value is 1 (Herbicidal rate of 5% or more and less than 20%).

And the “herbicidal effect rating, K: Italian ryegrass” value [8]?
Its value is 3 (Herbicidal rate of 40% or more and less than 70%).

What about the “herbicidal effect rating, L: windgrass” value [9] of the same molecule?
Its value is 0 (Herbicidal rate of 5% or less (almost no effect)).

And the “herbicidal effect rating, M: velvetleaf” value [10]?
Its value is 0 (Herbicidal rate of 5% or less (almost no effect)).

What about the “herbicidal effect rating, O: lambsquarters” value [11] of the same molecule?
Its value is 4 (Herbicidal rate of 70% or more and less than 90%).

And the “herbicidal effect rating, R: persian speedwell” value [12]?
The value was 5 (Herbicidal rate of 90% or more (almost completely withered)).

What about the “herbicidal effect grade, F: southern crabgrass” value ([13]; three weeks after application) of the same molecule?
The value was 3 (Herbicidal rate of 40% or more and less than 70%).

What about the “herbicidal effect grade, K: Italian ryegrass” value ([14]; three weeks after application) of the same molecule?
Its value is 3 (Herbicidal rate of 40% or more and less than 70%).

What about the “herbicidal effect grade, L: windgrass” value ([15]; three weeks after application) of the same molecule?
The value was 5 (Herbicidal rate of 90% or more (almost completely withered)).

And the “herbicidal effect grade, O: lambsquarters” value ([16]; three weeks after application)?
The value was 2 (Herbicidal rate of 20% or more and less than 40%).

What about the “herbicidal effect grade, R: persian speedwell” value ([17]; three weeks after application) of the same molecule?
The value was 5 (Herbicidal rate of 90% or more (almost completely withered)).
